# What was measured:
# [1] = test system: ApoB secretion, HepG2 cells; test: Quantification of the secretion of ApoB; assay type: cell-based; details: Homo sapiens, 24 hours of incubation, secreted apoB immunoprecipitated, read-out: pIC50 values (= −log IC50 value) (converted)
# Description: HepG2 cells were cultured in 24-well plates in MEM Rega 3 containing 10% fetal calf serum. At 70% confluency, the medium was changed and the test compound or carrier (DMSO, 0.4% final concentration) was added. After 24 hours of incubation, the medium was transferred to Eppendorf tubes and cleared by centrifugation. A sheep antibody directed against either apoB was added to the supernatant and the mixture was kept at 8° C. for 24 hours. Then, rabbit anti-sheep antibody was added and the immune complex was allowed to precipitate for 24 hours at 8° C. The immunoprecipitate was pelleted by centrifugation for 25 minutes at 1320 g and washed twice with a buffer containing 40 mM Mops, 40 mM NaH2PO4, 100 mM NaF, 0.2 mM DTT, 5 mM EDTA, 5 mM EGTA, 1% Triton-X-100, 0.5% sodium deoxycholate (DOC), 0.1% SDS, 0.2 μM leupeptin and 0.2 μM PMSF. Radioactivity in the pellet was quantified by liquid scintillation counting.
# Resulting IC50 values are enumerated in Table C.1. When the calculated IC50 was below 6, not enough data points were available at the tested concentrations to calculate an IC50 value.
# MTP = MTP (Homo sapiens, UniProt P55157); test: MTP assay (triglyceride transfer from donor to acceptor vesicles); assay type: biochemical; details: MTP activity, percent triglyceride transfer, 37° C.; read-out: pIC50 values (= −log IC50 value) (converted)
# Description: MTP activity was measured using an assay similar to one described by J. R. Wetterau and D. B. Zilversmit in Chemistry and Physics of Lipids, 38, 205-222 (1985). To prepare the donor and acceptor vesicles, the appropriate lipids in chloroform were put into a glass test tube and dried under a stream of N2. A buffer containing 15 mM Tris-HCl pH 7.5, 1 mM EDTA, 40 mM NaCl, 0.02% NaN3 (assay buffer) was added to the dried lipid. The mixture was vortexed briefly and the lipids were then allowed to hydrate for 20 min on ice. Vesicles were then prepared by bath sonication (Branson 2200) at room temperature for maximum 15 min. Butylated hydroxytoluene was included in all vesicle preparations at a concentration of 0.1%. The lipid transfer assay mixture contained donor vesicles (40 nmol phosphatidylcholine, 7.5 mol % of cardiolipin and 0.25 mol % glycerol tri [1-^14C]-oleate), acceptor vesicles (240 nmol phosphatidylcholine) and 5 mg BSA in a total volume of 675 μl in a 1.5 ml microcentrifuge tube. Test compounds were added dissolved in DMSO (0.13% final concentration). After 5 minutes of pre-incubation at 37° C., the reaction was started by the addition of MTP in 100 μl dialysis buffer. The reaction was stopped by the addition of 400 μl DEAE-52 cellulose pre-equilibrated in 15 mM Tris-HCl pH 7.5, 1 mM EDTA, 0.02% NaN3 (1:1, vol/vol). The mixture was agitated for 4 min and centrifuged for 2 min at maximum speed in an Eppendorf centrifuge (4° C.) to pellet the DEAE-52-bound donor vesicles. An aliquot of the supernatant containing the acceptor liposomes was counted and the [^14C]-counts were used to calculate the percent triglyceride transfer from donor to acceptor vesicles.
# Resulting IC50 values are enumerated in Table C.2. When the calculated IC50 was below 7, not enough data points were available at the tested concentrations to calculate an IC50 value.
# MTP, sequence (P55157 19-894, species assumed): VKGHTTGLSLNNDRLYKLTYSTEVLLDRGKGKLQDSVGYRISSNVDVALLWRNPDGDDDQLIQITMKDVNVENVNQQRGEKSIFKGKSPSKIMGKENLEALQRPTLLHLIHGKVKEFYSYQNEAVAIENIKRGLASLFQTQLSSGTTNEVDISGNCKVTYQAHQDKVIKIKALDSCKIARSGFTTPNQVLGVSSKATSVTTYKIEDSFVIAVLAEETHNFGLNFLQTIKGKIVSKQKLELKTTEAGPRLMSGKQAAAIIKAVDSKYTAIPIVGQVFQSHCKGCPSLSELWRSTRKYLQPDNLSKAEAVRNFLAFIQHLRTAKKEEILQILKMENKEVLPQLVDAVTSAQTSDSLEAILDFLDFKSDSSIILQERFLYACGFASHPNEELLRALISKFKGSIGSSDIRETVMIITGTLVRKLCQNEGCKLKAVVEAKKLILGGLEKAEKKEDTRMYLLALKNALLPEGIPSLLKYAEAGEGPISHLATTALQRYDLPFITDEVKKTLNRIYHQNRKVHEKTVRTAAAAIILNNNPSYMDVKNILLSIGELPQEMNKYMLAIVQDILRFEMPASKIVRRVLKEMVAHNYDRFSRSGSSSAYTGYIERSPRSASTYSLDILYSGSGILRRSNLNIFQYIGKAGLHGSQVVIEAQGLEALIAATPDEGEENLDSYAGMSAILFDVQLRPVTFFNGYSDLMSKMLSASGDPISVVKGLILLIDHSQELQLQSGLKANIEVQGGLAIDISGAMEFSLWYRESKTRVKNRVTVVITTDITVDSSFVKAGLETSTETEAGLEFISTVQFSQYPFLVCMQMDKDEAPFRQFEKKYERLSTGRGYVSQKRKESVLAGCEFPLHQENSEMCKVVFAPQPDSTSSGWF
# MTP, sequence (P07237 18-508 partner, species assumed): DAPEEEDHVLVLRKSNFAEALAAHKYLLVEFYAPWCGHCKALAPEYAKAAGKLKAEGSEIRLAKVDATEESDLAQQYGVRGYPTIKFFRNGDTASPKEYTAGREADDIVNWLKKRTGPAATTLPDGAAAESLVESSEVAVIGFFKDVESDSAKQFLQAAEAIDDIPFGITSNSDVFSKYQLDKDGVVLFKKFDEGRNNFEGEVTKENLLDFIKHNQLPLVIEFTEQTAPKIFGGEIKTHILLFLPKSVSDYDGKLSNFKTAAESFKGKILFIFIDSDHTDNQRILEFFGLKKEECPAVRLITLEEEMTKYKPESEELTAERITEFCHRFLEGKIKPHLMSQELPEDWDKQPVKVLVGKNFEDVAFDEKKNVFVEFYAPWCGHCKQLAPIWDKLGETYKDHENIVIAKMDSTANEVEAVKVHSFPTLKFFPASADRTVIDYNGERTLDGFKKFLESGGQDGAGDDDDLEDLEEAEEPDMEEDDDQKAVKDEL
SMILES,IC50 [1] [nM],IC50 (MTP) [nM]
CCOC(=O)[C@@H](NC(=O)CC1CCN(c2ccc(NC(=O)c3ccccc3-c3ccc(C(F)(F)F)cc3)cc2)CC1)C(C)C [Compound 19],116,> 100
CCOC(=O)CC[C@@H](NC(=O)CC1CCN(c2ccc(NC(=O)c3cccc(C)c3-c3ccc(C(F)(F)F)cc3)cc2)CC1)C(=O)OCC [Compound 52],74,3
CCOC(=O)C1CCCN(C(=O)CC2CCN(c3ccc(NC(=O)c4ccccc4-c4ccc(C(F)(F)F)cc4)cc3)CC2)C1 (stereo not shown) [Compound 2],65.3,> 1000
COC(=O)C(NC(=O)CC1CCN(c2ccc(NC(=O)c3ccccc3-c3ccc(C(F)(F)F)cc3)cc2)CC1)C(C)C (stereo not shown) [Compound 4],48.5,41.3
CCOC(=O)CCNC(=O)CC1CCN(c2ccc(NC(=O)c3ccccc3-c3ccc(C(F)(F)F)cc3)cc2)CC1 [Compound 26],58.6,8.41
COC(=O)[C@@H](C)NC(=O)CC1CCN(c2ccc(NC(=O)c3cccc(C)c3-c3ccc(C(F)(F)F)cc3)cc2)CC1 [Compound 44],21.1,1.7
CCOC(=O)C(CCSC)NC(=O)CC1CCN(c2ccc(NC(=O)c3ccccc3-c3ccc(C(F)(F)F)cc3)cc2)CC1 (stereo not shown) [Compound 7],138,25.5
CCOC(=O)C[C@H](NC(=O)CC1CCN(c2ccc(NC(=O)c3ccccc3-c3ccc(C(F)(F)F)cc3)cc2)CC1)C(=O)OCC [Compound 36],–,39.4
CCOC(=O)[C@H]1CCCN(C(=O)CC2CCN(c3ccc(NC(=O)c4ccccc4-c4ccc(C(F)(F)F)cc4)cc3)CC2)C1 [Compound 11],> 1000,> 100
COC(=O)C1C[C@@H](O)CN1C(=O)CC1CCN(c2ccc(NC(=O)c3ccccc3-c3ccc(C(F)(F)F)cc3)cc2)CC1 (stereo partly shown) [Compound 15],> 1000,> 100
CCOC(=O)CNC(=O)CC1CCN(c2ccc(NC(=O)c3ccccc3-c3ccc(C(F)(F)F)cc3)cc2)CC1 [Compound 37],44.8,5.01
COC(=O)CNC(=O)CC1CCN(c2ccc(NC(=O)c3cccc(C)c3-c3ccc(C(F)(F)F)cc3)cc2)CC1 [Compound 43],7.03,10.4
COC(=O)[C@@H]1CCCCN1C(=O)CC1CCN(c2ccc(NC(=O)c3ccccc3-c3ccc(C(F)(F)F)cc3)cc2)CC1 [Compound 10],> 1000,> 100
CCOC(=O)C(C)(C)NC(=O)CC1CCN(c2ccc(NC(=O)c3cccc(C)c3-c3ccc(C(F)(F)F)cc3)cc2)CC1 [Compound 42],152,14.9
COC(=O)[C@H](CCCCN)NC(=O)CC1CCN(c2ccc(NC(=O)c3ccccc3-c3ccc(C(F)(F)F)cc3)cc2)CC1 [Compound 29],> 1000,> 100
CCOC(=O)[C@@H](C)NC(=O)CC1CCN(c2ccc(NC(=O)c3ccccc3-c3ccc(C(F)(F)F)cc3)cc2)CC1 [Compound 18],< 30,3.42
CCNC(=O)[C@H](C)NC(=O)CC1CCN(c2ccc(NC(=O)c3cccc(C)c3-c3ccc(C(F)(F)F)cc3)cc2)CC1 [Compound 49],17.3,9.1
COC(=O)[C@H](CCCN)NC(=O)CC1CCN(c2ccc(NC(=O)c3ccccc3-c3ccc(C(F)(F)F)cc3)cc2)CC1 [Compound 28],> 1000,> 100
COC(=O)[C@@H]1C[C@H](O)CN1C(=O)CC1CCN(c2ccc(NC(=O)c3ccccc3-c3ccc(C(F)(F)F)cc3)cc2)CC1 [Compound 16],> 1000,> 100
CCNC(=O)COC(=O)CC1CCN(c2ccc(NC(=O)c3cccc(C)c3-c3ccc(C(F)(F)F)cc3)cc2)CC1 [Compound 51],15.5,6.04

SMILES,IC50 [1] [nM],IC50 (MTP) [nM]
COC(=O)C(C)NC(=O)CC1CCN(c2ccc(NC(=O)c3ccccc3-c3ccc(C(F)(F)F)cc3)cc2)CC1 (stereo not shown) [Compound 3],61.4,7.82
CCOC(=O)[C@H](NC(=O)CC1CCN(c2ccc(NC(=O)c3ccccc3-c3ccc(C(F)(F)F)cc3)cc2)CC1)C(C)C [Compound 20],< 30,6.37
CCOC(=O)[C@@H]1CCCN1C(=O)CC1CCN(c2ccc(NC(=O)c3ccccc3-c3ccc(C(F)(F)F)cc3)cc2)CC1 [Compound 32],406,31.6
CCOC(=O)[C@H](C)NC(=O)CC1CCN(c2ccc(NC(=O)c3cccc(C)c3-c3ccc(C(F)(F)F)cc3)cn2)CC1 [Compound 45],962,–
CCOC(=O)[C@H]1CCCN1C(=O)CC1CCN(c2ccc(NC(=O)c3ccccc3-c3ccc(C(F)(F)F)cc3)cc2)CC1 [Compound 13],> 1000,> 100
CCOC(=O)[C@H](Cc1ccccc1)NC(=O)CC1CCN(c2ccc(NC(=O)c3ccccc3-c3ccc(C(F)(F)F)cc3)cc2)CC1 [Compound 24],841,76.7
CCOC(=O)[C@@H](NC(=O)CC1CCN(c2ccc(NC(=O)c3ccccc3-c3ccc(C(F)(F)F)cc3)cc2)CC1)c1ccccc1 [Compound 22],54.8,8.93
CCOC(=O)[C@H](Cc1ccc(O)cc1)NC(=O)CC1CCN(c2ccc(NC(=O)c3ccccc3-c3ccc(C(F)(F)F)cc3)cc2)CC1 [Compound 31],> 1000,81.1
CCOC(=O)C(C)NC(=O)CC1CCN(c2ccc(NC(=O)c3ccccc3-c3ccc(C(F)(F)F)cc3)cc2)CC1 (stereo not shown) [Compound 5],< 30,2.06
CCOC(=O)C1CCN(C(=O)CC2CCN(c3ccc(NC(=O)c4ccccc4-c4ccc(C(F)(F)F)cc4)cc3)CC2)CC1 [Compound 35],> 1000,> 100
CCOC(=O)[C@H](C)NC(=O)CC1CCN(c2ccc(N(C)C(=O)c3ccccc3-c3ccc(C(F)(F)F)cc3)cc2)CC1 [Compound 47],> 1000,–
CCOC(=O)[C@@H](Cc1ccccc1)NC(=O)CC1CCN(c2ccc(NC(=O)c3ccccc3-c3ccc(C(F)(F)F)cc3)cc2)CC1 [Compound 25],> 1000,–
CCOC(=O)[C@@H]1CCCN(C(=O)CC2CCN(c3ccc(NC(=O)c4ccccc4-c4ccc(C(F)(F)F)cc4)cc3)CC2)C1 [Compound 12],> 1000,> 100
CCOC(=O)[C@H](C)NC(=O)CC1CCN(c2ccc(N(C)C(=O)c3cccc(C)c3-c3ccc(C(F)(F)F)cc3)cn2)CC1 [Compound 50],–,10.4
COC(=O)[C@H](CCN)NC(=O)CC1CCN(c2ccc(NC(=O)c3ccccc3-c3ccc(C(F)(F)F)cc3)cc2)CC1 [Compound 27],643,> 100
CCOC(=O)CC(NC(=O)CC1CCN(c2ccc(NC(=O)c3ccccc3-c3ccc(C(F)(F)F)cc3)cc2)CC1)c1ccc2c(c1)OCO2 (stereo not shown) [Compound 8],< 30,20.1
COC(=O)[C@H](C)NC(=O)CC1CCN(c2ccc(NC(=O)c3cccc(C)c3-c3ccc(C(F)(F)F)cc3)cc2)CC1 [Compound 46],218,–
COC(=O)CCNC(=O)CC1CCN(c2ccc(NC(=O)c3cccc(C)c3-c3ccc(C(F)(F)F)cc3)cc2)CC1 [Compound 55],6.03,1.62
CCOC(=O)[C@H](CC(C)C)NC(=O)CC1CCN(c2ccc(NC(=O)c3ccccc3-c3ccc(C(F)(F)F)cc3)cc2)CC1 [Compound 30],575,22
CCOC(=O)[C@H](C)NC(=O)CC1CCN(c2ccc(NC(=O)c3cccc(C)c3-c3ccc(C(F)(F)F)cc3)nc2)CC1 [Compound 48],670,–
